From patent US12331051B2 (priority 2021, dated 2025)

How the values were obtained:
hERG channel = biological target: T1, hERG channel (Homo sapiens, UniProt Q12809); experiment: Cell-based hERG antagonist assay, CHO-K1 cells, tail current
T1 construct: expressed in transfected cells; host or cells: CHO-K1
Experimental: The human […] (hERG) channel, is a potassium channel whose inhibition is related to cardiac arrhythmias (Abbott et al., Cell, 1999, V97(2); p175-187). The effect of the “E559 polymorph” on the hERG channel was performed in a cell-based hERG antagonist assay. In brief, CHO-K1 cells were stably transfected with human hERG cDNA and allowed to achieve whole cell configuration in culture. Cells were held at −80 mV and a 500 ms pulse to −40 mV is delivered to measure the leaking current, which is subtracted from the tail current on-line. Then the cell is depolarized to +40 mV for 500 ms and then to −80 mV over a 100 ms ramp to elicit the hERG tail current. This paradigm is delivered once every 8 s to monitor the current amplitude. The assay is conducted at room temperature. The “E559 polymorph” is then applied to cells from low to high concentrations (0.0003, 0.003, 0.01, 0.03, 0.1, 0.3, 1, 10, 30, and 100 μM) sequentially for 5 minutes. Astermizole is used at multiple concentrations as a reference compound to calculate the percent inhibition of hERG channel by the “polymorph E559”.

[1] = tested on: cultured primary rat neurons; experiment: Cell viability, Neurite Outgrowth Staining Kit; format: cell-based; settings: DIV 6, all tested concentrations
Experimental: The ability of the “E559 polymorph” to induce neural plasticity was evaluated in vitro. In vitro dendritogenesis and spinogenesis assays were conducted using primary rat embryonic cortical neurons. Briefly, cultured primary cortical neurons (rat) were treated at day in vitro (DIV) 3 for 3 hours with increasing concentrations (1, 10 and 100 nM, 1 and […]) of the “E559 polymorph” and morphological changes in dendritic arbor complexity (dendritogenesis) were assessed at DIV6 by immunofluorescent staining of fixed neurons with microtubule-associated protein 2 (MAP2, a microtubule marker), F-actin (cytoskeletal marker), and phalloidin (actin filament marker) followed by fluorescent microscopy and Sholl analysis of neurons' images. […] The spine density assessments (spinogenesis) were made on DIV 18. The cell viability assessments were made on DIV 6 by using the Neurite Outgrowth Staining Kit which includes fluorescent probes for dead and live neuronal cells. Ketamine was used as a comparator and positive control. Ketamine is known to induce dendritogenesis and its effects on synaptic plasticity are believed to mediate its antidepressant effects (Aguilar-Valles et al., Nature, 2021, 590, p315-319). Representative images of MAP2 stained rat cortical neurons treated with vehicle (no drug control) or with “E559 polymorph” is shown in FIG. 18A.

[2] = biological target: T2, Serotonin 2C receptor (5-HT2CR) (Homo sapiens, UniProt P28335); experiment: Functional assay in HEK-293 cells (IP1); format: cell-based
T2 construct: expressed in transfected cells; host or cells: HEK-293
T2 sequence (P28335 33-458): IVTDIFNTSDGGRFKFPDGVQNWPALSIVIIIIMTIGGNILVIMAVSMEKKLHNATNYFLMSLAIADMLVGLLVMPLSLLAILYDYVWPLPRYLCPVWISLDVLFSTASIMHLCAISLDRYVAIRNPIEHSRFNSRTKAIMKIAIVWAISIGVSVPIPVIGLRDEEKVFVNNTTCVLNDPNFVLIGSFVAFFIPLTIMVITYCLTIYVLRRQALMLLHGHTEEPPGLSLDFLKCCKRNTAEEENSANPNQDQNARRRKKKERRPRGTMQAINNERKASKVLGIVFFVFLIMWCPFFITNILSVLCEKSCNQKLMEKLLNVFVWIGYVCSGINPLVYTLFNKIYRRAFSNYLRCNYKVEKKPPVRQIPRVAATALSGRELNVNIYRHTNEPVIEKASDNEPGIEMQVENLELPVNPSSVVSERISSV
Experimental: (§1) Neuro-receptor binding and functional effects of the “E559 polymorph” was examined by analyzing binding affinity [Ki (nM)], functional agonist activity [EC50 (nM)], and functional antagonist activity [IC50 (nM)] against a panel of key receptors in neurophysiological disorders. Binding and functional assays were performed at “E559 polymorph” concentrations of 0.0003, 0.003, 0.01, 0.03, 0.1, 0.3, 1, and 10 μM. In binding assays, cell membrane homogenates, expressing each receptor target, were incubated with the corresponding radio-ligand in absence or presence of several concentration of the “E559 polymorph” compound. The measurement of binding affinity of the “E559 polymorph” is represented in TABLE XIII by Ki (nM) which was calculated as percent inhibition of the binding of a radioactively labeled reference ligand at each receptor. […] Following incubation, the cells were lysed and the appropriate fluorescent probe (Ca2+ flux, cAMP, or IP1) were added for 60 minutes to measure the fluorescence transfer at the appropriate wavelength using a microplate reader. The cellular agonist effect (EC50) was calculated as a percent of control response to a known reference agonist and the cellular antagonist effect (IC50) was calculated as a percent inhibition of control reference agonist response for each receptor.

D1 dopamine receptor = D1 dopamine receptor (Homo sapiens, UniProt P21728); experiment: Radioligand binding, cell membrane homogenates; parameters: expressed in transfected cells; host or cells: HEK-293
Experimental: as §1

[3] = Single-dose comparative pharmacokinetic study, IV and oral, fasted and fed; format: in vivo, Beagle dogs
Experimental: A single-dose comparative pharmacokinetic (PK) study was conducted in Beagle dogs to assess the oral bioavailability and the effect of food on the “E559 polymorph” (FIG. 12). Four male dogs were used in 3 test groups in a cross-over design with at least 3 days washout period between each test group (Groups 1, 2 and 3). In Group 1, four male dogs received a single intravenous (IV) dose of 0.0324 mg/kg of the “polymorph E559”. In Group 2 the same four dogs received a single oral dose of 0.324 mg/kg of the “polymorph E559” in fasted state. In Group 3 the same four dogs received a single oral dose of 0.324 mg/kg of the “E559 polymorph” in the fed state (same oral dose amount as in Group 2). Blood samples were collected from all dogs at pre-dose and 0.08, 0.25, 0.5, 1, 2, 4, 8, and 24 hours post dose to measure the “E559 polymorph” levels by LC-MS/MS method conducted as described in Example 3.

T1 sequence (Q12809 whole entry): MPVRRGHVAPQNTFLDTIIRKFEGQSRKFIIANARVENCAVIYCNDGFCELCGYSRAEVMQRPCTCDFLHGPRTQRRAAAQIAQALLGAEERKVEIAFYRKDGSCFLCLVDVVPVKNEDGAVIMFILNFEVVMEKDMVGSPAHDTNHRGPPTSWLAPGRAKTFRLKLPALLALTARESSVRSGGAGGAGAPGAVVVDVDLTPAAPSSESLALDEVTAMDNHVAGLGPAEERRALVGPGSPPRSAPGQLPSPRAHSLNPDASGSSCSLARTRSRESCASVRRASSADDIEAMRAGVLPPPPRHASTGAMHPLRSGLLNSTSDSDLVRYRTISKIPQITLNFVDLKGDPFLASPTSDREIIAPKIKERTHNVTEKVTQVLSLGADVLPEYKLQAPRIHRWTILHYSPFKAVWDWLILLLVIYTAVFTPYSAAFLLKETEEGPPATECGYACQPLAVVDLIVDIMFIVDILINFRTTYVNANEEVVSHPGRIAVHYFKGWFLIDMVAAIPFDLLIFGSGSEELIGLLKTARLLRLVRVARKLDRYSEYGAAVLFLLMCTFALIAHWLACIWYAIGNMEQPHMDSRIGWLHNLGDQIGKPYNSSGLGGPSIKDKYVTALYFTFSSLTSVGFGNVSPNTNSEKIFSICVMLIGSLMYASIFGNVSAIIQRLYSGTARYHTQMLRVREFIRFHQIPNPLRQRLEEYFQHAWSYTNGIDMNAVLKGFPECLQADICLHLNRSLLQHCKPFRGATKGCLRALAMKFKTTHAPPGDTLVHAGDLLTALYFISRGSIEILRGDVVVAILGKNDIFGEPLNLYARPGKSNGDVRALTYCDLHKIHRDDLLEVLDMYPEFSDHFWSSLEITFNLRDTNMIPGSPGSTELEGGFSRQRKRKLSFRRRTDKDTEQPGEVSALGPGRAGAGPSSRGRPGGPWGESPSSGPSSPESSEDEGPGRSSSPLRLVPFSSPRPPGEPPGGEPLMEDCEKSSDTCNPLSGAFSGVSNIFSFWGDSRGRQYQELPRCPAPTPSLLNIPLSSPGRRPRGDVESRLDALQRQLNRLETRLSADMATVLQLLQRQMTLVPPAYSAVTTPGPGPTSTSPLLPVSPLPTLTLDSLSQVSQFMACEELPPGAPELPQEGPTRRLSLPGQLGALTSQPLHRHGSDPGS
D1 dopamine receptor, sequence (P21728 whole entry): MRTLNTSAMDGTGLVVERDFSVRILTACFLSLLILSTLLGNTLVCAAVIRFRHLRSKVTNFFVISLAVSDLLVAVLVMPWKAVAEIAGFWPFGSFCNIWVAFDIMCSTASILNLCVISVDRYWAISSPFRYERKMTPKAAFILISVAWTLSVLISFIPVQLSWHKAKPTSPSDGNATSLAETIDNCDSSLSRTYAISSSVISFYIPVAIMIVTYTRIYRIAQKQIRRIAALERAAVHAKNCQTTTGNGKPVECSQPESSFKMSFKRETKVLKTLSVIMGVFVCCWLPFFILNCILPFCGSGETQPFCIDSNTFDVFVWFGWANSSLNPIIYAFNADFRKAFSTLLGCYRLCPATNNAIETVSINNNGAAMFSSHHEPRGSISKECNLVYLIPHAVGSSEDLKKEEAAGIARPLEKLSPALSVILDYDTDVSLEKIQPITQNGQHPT

With `CCN(CC)C(=O)[C@@H]1C=C2c3cccc4[nH]c(Br)c(c34)C[C@H]2N(C)C1` [E559, (5R, 8R)-2-Bromo-9,10-didehydro-N,N-diethyl-6-methylergoline-8-carboxamide hemi-D-tartrate] the EC50 (hERG channel) was 31600 nM, the “viability of cultured primary rat neurons (cytotoxic activity)” value [1] was “no cytotoxic activity was observed at all tested concentrations” and the EC50 [2] was greater than 10000 nM. For the same molecule, the IC50 [2] was 1100 nM, the Ki (D1 dopamine receptor) was 25 nM and the oral bioavailability ([3]; oral 0.324 mg/kg vs IV 0.0324 mg/kg) was “good oral bioavailability”. The “effect of food on oral bioavailability” value ([3]; oral 0.324 mg/kg, fasted vs fed) was “no differences in the mean absolute and relative oral bioavailability between fasted and fed dogs”.
